# Where two headings read alike, the source gives them in different places.
# What was measured:
# A. baumannii HUMC1 = test: MIC by broth microdilution (CLSI), carbapenem-resistant clinical isolate HUMC1; type: cell-based, Acinetobacter baumannii
# Experimental: (§1) Two A. baumannii isolates were used in this example: HUMC1 (BV374) (Spellberg/Luna Laboratory, University of Southern California, Los Angeles, Calif.) and UNT091-1 (BV378) (UNT Health Science Center, Fort Worth, Tex.). The HUMC1 isolate is a hyper-virulent drug-resistant clinical strain isolated from a blood-stream infection. […] The isolates were stored at −80° C. as 20% (v/v) glycerol cultures.
# (§2) MICs were determined by the broth microdilution method following the guidelines of the Clinical Laboratory Standards Institute (CLSI) using RPMI supplemented with […] cationic-adjusted Muller Hinton broth (CA-MHB) as assay medium. To prepare the bacterial inocula, 3-5 colonies of bacterial strains from over-night growth on ChromAgar orientation plates (CHROMagar Cat. No. RT412) were suspended in 5 mL saline. The turbidity of the bacterial suspension was adjusted to 0.5 McFarland units (equal to an optical density at 610 nm (OD610) to 0.08-0.1). This suspension was diluted 200-fold in RPMI supplemented with 10% (v/v) FCS to reach a final concentration of […] colony forming units (CFU)/mL and was used to inoculate the microtiter plates.
# (§3) Serial 2-fold dilutions of the antibiotics were prepared in a separate 96-well plate polypropylene U-bottom plate (Ratiolab Cat. No. 6018111) in RPMI supplemented with 10% (v/v) FCS at 10-fold of the final test concentrations and 10 μl of the dilutions were transferred to new 96-well polystyrene U-bottom microtiter plates with a parafilm plate cover.
# (§4) The plates were then inoculated with 90 μL per well of the prepared bacterial suspensions in using a multichannel pipette (Eppendorf), with the first column containing 4 wells each for growth control (no antibiotic). […] The MIC was recorded as the lowest concentration of the compound that inhibited bacterial growth by visual inspection. MICs were determined at least in duplicates and in the case of variations, the higher values are provided.
# A. baumannii UNT091 [1] = test: MIC by broth microdilution (CLSI), carbapenem-resistant clinical isolate UNT091; type: cell-based, Acinetobacter baumannii
# Experimental: as §1, §2, §3, §4
# A. baumannii ATCC 17978 = test: MIC in fhuE expressing A. baumannii strains (plasmid-based expression, IPTG inducible); type: cell-based, Acinetobacter baumannii; conditions: for MIC: Acinetobacter baumannii
# Description: The fhuE gene (AWC45_RS10145) from the A. baumannii HUMC1 strain was cloned into the E. coli/A. baumannii shuttle plasmid pVT111 under the control of the isopropyl-beta-D-1-thiogalactopyranoside (IPTG) inducible promoter Ptrc-lacO. The resulting plasmid and the original pVT111 plasmid (control) were transferred to the A. baumannii strain ATCC-17978 by conjugation and transconjugants were selected on LB agar plates containing kanamycin.
# A. baumannii ACC00445 [2] = system: A. baumannii ACC00445
# Experimental: (§5) A. baumannii clinical isolates were stored at −80° C. as 20% (v/v) in glycerol stock cultures.
# (§6) Selective agar plates were prepared using RPMI powder (Sigma R7755) dissolved at 10.3 g/L with agar at 15 g/L and boiled until complete agar melting. After cooling the media to 45° C., 0.3 g/L L-glutamine (Sigma G7513), 25 mM HEPES (Gibco 15630-056) and 10% (v/v) FCS (Gibco 10500-064) were added.
# (§7) The culture inocula were prepared from a bacterial NaCl suspension at 0.5 McFarland diluted 200-times in 100 mL of RPMI (Sigma R8758)+10% FCS in 500 mL flasks to reach ˜5×10^5 CFU/mL. The flasks were incubated for 24 h at 37° C. under shaking at 220 rpm. After incubation, the cells were pelleted by centrifugation (10 min, 7000 rpm at RT) and re-suspended in 1 mL PBS. […] After incubation at 35° C. for 24 h colonies were counted, and the frequency of resistance was calculated as the ratio between the number of colonies growing on plates with antibiotic and the total colony count of the inocula.
# A. baumannii HUMC-1 = conditions: HUMC-1, rifabutin 0.1 mg/L
# Experimental: as §5, §6, §7
# A. baumannii LAC-4 = system: A. baumannii LAC-4
# Experimental: as §5, §6, §7
# A. baumannii UNT091 [3] = system: A. baumannii UNT091
# Experimental: as §5, §6, §7
# A. baumannii UNT238 = system: A. baumannii UNT238
# Experimental: as §5, §6, §7
# [4] = system: five clinical A. baumannii strains; conditions: rifabutin concentrations of ≥2 mg/L
# Experimental: as §5, §6, §7
# A. baumannii ACC00445 [5] = test: Neutropenic sepsis mouse model (CD-1 mice, IP infection); type: in vivo; conditions: IV at 1 h and 5 h post-infection, 1 mg/kg
# Description: The CD-1 mice were IP infected with A. baumannii ACC00445 strain in the presence of […].
# A. baumannii UNT091 [6] = test: Neutropenic lung infection mouse model (CD-1 mice, intranasal infection); type: in vivo; conditions: UNT091, IV at 2 h post-infection, 24 hours of treatment, doses of <0.5 mg/kg
# Experimental: (§8) After 24 hours of treatment the mice were sacrificed and colony forming units in the lungs were measured.
# A. baumannii UNT093 = test: as above; type: in vivo; conditions: UNT093, IV at 2 h post-infection, 24 hours of treatment, doses of <0.5 mg/kg
# Experimental: as §8
# A. baumannii [7] = test: Dose fractionation in a neutropenic mouse model of infection; type: in vivo; conditions: IV q24 h, q12 h or q6 h
# Description: FIG. 5 summarizes the results of dose fractionation experiments in a neutropenic mouse model of infection.
# A. baumannii [8] = test: Target exposures (PK/PD index, sigmoid Emax model) for 1-log reduction in lung CFUs; type: in vivo
# [9] = system: A. baumannii UNT091-1 ΔfhuE mutant; test: Neutropenic lung infection in CD-1 mice, wildtype versus ΔfhuE mutant; type: in vivo; conditions: mice infected with UNT091-1::ΔfhuE, single IV dose at 2 h, burden at 26 hours
# Experimental: FIG. 6 is a graph showing CFU per lung pair in mice inoculated with A. baumannii strains. Neutropenic, female CD-1 mice (5 per group) were inoculated intranasally (t=0 hr) with equivalent titers (6.90 and 6.93 log10 CFU) of A. baumannii UNT091-1 wildtype and A. baumannii UNT091-1 ΔfhuE mutant. The treatment (single IV dose) was administered at 2-hour post-infection and bacterial burden was reported at 26 hours by determining CFU/lung. Furthermore, the effect of RBT was blunted in mice infected with the UNT091-1::ΔfhuE strain supporting the role of fhuE as mediating RBT sensitivity both in vitro and in vivo.
# [10] = system: panel of 293 CRAB strains (A. baumannii); test: MIC by agar dilution on Muller Hinton Agar, panel of 293 CRAB strains; type: cell-based
# Experimental: The strain panel contained isolates with 10% MDR (n=29), 86% XDR (n=253) and 4% (n=11) PDR phenotypes. Isolates were collected mainly from patients with pneumonia (59%), bloodstream infections (28%), and skin and soft tissue infections (11%) and categorized according to CLSI breakpoints as XDR when […] the antimicrobial classes described by Magiorakos et al. 2011. […] Comparator antibiotics were tested at CLSI standard conditions.
# A. baumannii [11] = test: Liquid MIC determination using RPMI supplemented with FCS, clinical panel; type: cell-based; conditions: Acinetobacter baumannii
# Description: All isolates were resistant to carbapenems.
# [12] = system: A. baumannii ATCC-17978 expressing FhuE V38P; test: Complementation assay, plasmid mediated expression of FhuE variants in CA-MHB; type: cell-based; conditions: ATCC-17978 host, 1 mM IPTG
# Description: See, Cadieux, N., Bradbeer, C. & Kadner, R. J. Sequence changes in the ton box region of BtuB affect its transport activities and interaction with TonB protein. J. Bacteriol. 182, 5954-5961 (2000); Funahashi, T. et al. Identification and characterization of an outer membrane receptor gene in Acinetobacter baumannii required for utilization of desferricoprogen, rhodotorulic acid, and desferrioxamine B as xenosiderophores. Biol. Pharm. Bull. 35, 753-760 (2012); the content of each of which is incorporated herein by reference.
# [13] = Acinetobacter baumannii, iron-chelated nutrient rich MHA (0.1 mM PIH), agar dilution
compound,measurement,setting,value
gentamicin,MIC,"A. baumannii HUMC1; HUMC1, CA-MHB (Table 1)",>16 µg/mL
same,MIC,"A. baumannii HUMC1; HUMC1, RPMI plus 10% FCS (Table 1)",>16 µg/mL
same,MIC,"A. baumannii UNT091 [1]; UNT091, CA-MHB (Table 1)",>16 µg/mL
same,MIC,"A. baumannii UNT091 [1]; UNT091, RPMI plus 10% FCS (Table 1)",>16 µg/mL
CO[C@H]1/C=C/O[C@@]2(C)Oc3c(C)c(O)c4c(c3C2=O)C2=NC3(CCN(CC(C)C)CC3)NC2=C(NC(=O)/C(C)=C\C=C\[C@H](C)[C@H](O)[C@@H](C)[C@@H](O)[C@@H](C)[C@H](OC(C)=O)[C@@H]1C)C4=O [rifabutin],MIC,"A. baumannii HUMC1; Acinetobacter baumannii, HUMC1, HUMC1, RPMI plus 10% FCS (Table 1), read-out: MIC",0.002 µg/mL
same,MIC,"A. baumannii HUMC1; Acinetobacter baumannii, HUMC1, HUMC1 parental strain, RPMI + 10% FCS (Table 2), read-out: MIC",0.002 µg/mL
same,MIC,"A. baumannii UNT091 [1]; Acinetobacter baumannii, UNT091, UNT091, CA-MHB (Table 1), read-out: MIC",8 µg/mL
same,MIC,"A. baumannii UNT091 [1]; Acinetobacter baumannii, UNT091, UNT091, RPMI plus 10% FCS (Table 1), read-out: MIC",0.002 µg/mL
same,MIC,"A. baumannii UNT091 [1]; Acinetobacter baumannii, UNT091, UNT091 parental strain, RPMI + 10% FCS (Table 2), read-out: MIC",0.002 µg/mL
same,MIC,"A. baumannii ATCC 17978; ATCC17978, read-out: rifabutin MIC, FhuE expressing plasmid, CA-MHB 1 mM IPTG",0.002 µg/mL
same,MIC,"A. baumannii ATCC 17978; ATCC17978, read-out: rifabutin MIC, FhuE expressing plasmid, CA-MHB no IPTG",0.016 µg/mL
same,MIC,"A. baumannii ATCC 17978; ATCC17978, read-out: rifabutin MIC, empty plasmid, CA-MHB 1 mM IPTG",2 µg/mL
same,MIC,"A. baumannii ATCC 17978; ATCC17978, read-out: rifabutin MIC, empty plasmid, CA-MHB no IPTG",1 µg/mL
same,MIC,"A. baumannii ATCC 17978; ATCC17978, read-out: rifabutin MIC, no plasmid, CA-MHB 1 mM IPTG",4 µg/mL
same,MIC,"A. baumannii ATCC 17978; ATCC17978, read-out: rifabutin MIC, no plasmid, CA-MHB no IPTG",4 µg/mL
same,MIC lower in fhuE expressing plasmid strain compared to empty plasmid strain,A. baumannii ATCC 17978; in the presence of IPTG,1000 fold
same,Frequency of Mutational Resistance (FoR),"A. baumannii ACC00445 [2]; ACC00445, rifabutin 0.02 mg/L",1.10E−05
same,Frequency of Mutational Resistance (FoR),"A. baumannii ACC00445 [2]; ACC00445, rifabutin 0.2 mg/L",8.10E−06
same,Frequency of Mutational Resistance (FoR),"A. baumannii ACC00445 [2]; ACC00445, rifabutin 2 mg/L",2.40E−09
same,Frequency of Mutational Resistance (FoR),"A. baumannii ACC00445 [2]; ACC00445, rifabutin 20 mg/L",5.70E−09
same,Frequency of Mutational Resistance (FoR),A. baumannii HUMC-1,1.70E−05
same,Frequency of Mutational Resistance (FoR),"A. baumannii LAC-4; LAC-4, rifabutin 0.2 mg/L",7.00E−05
same,Frequency of Mutational Resistance (FoR),"A. baumannii LAC-4; LAC-4, rifabutin 2 mg/L",5.00E−09
same,Frequency of Mutational Resistance (FoR),"A. baumannii LAC-4; LAC-4, rifabutin 20 mg/L",4.20E−09
same,Frequency of Mutational Resistance (FoR),"A. baumannii UNT091 [3]; UNT091, rifabutin 0.02 mg/L",7.80E−06
same,Frequency of Mutational Resistance (FoR),"A. baumannii UNT091 [3]; UNT091, rifabutin 0.2 mg/L",6.40E−06
same,Frequency of Mutational Resistance (FoR),"A. baumannii UNT091 [3]; UNT091, rifabutin 2 mg/L",7.10E−09
same,Frequency of Mutational Resistance (FoR),"A. baumannii UNT091 [3]; UNT091, rifabutin 20 mg/L",7.80E−09
same,Frequency of Mutational Resistance (FoR),"A. baumannii UNT238; UNT238, rifabutin 0.2 mg/L",2.30E−05
same,Frequency of Mutational Resistance (FoR),"A. baumannii UNT238; UNT238, rifabutin 2 mg/L",8.80E−10
same,Frequency of Mutational Resistance (FoR),"A. baumannii UNT238; UNT238, rifabutin 20 mg/L",1.60E−08
same,frequency of mutational resistance,[4],~10^−9
same,protection against sepsis,A. baumannii ACC00445 [5],protects against sepsis
same,effect on colony forming units in the lungs,A. baumannii UNT091 [6],potent effect
same,effect on colony forming units in the lungs,A. baumannii UNT093,potent effect
same,dose fractionation result,A. baumannii [7],clear dose response relationship
same,Target AUC required to treat,A. baumannii [8]; MIC 0.5 mg/L,5.74 mg·h/L
same,Target Cmax required to treat,A. baumannii [8]; MIC 0.5 mg/L,1.30 mg/L
same,Target AUC required to treat,A. baumannii [8]; MIC 1 mg/L,11.48 mg·h/L
same,Target Cmax required to treat,A. baumannii [8]; MIC 1 mg/L,2.59 mg/L
same,Target AUC required to treat,A. baumannii [8]; MIC 2 mg/L,22.96 mg·h/L
same,Target Cmax required to treat,A. baumannii [8]; MIC 2 mg/L,5.19 mg/L
same,effect on bacterial burden (CFU/lung),[9],blunted
same,MIC50,[10]; [13],0.008 µg/mL
same,MIC90,[10]; [13],1 µg/mL
same,activity,[10]; standard MHA,only marginal activity
same,MIC50,A. baumannii [11],0.004 µg/mL
same,MIC90,A. baumannii [11],2 µg/mL
same,restoration of potent activity by FhuE V38P expression compared to wildtype FhuE,[12],not able to restore rifabutin potent activity

# Source: patent publication US11833139B2 (priority 2019, dated 2023)
